Results reported in ChEMBL document CHEMBL3508140 (2016).

Key:
Mus musculus [1] = species on record: Mus musculus; test: Binding of 14C-epirubicin at 20 ng.ml-1 concentration to plasma protein of mouse; format: cell-free; details: CD-1
Rattus norvegicus [2] = species on record: Rattus norvegicus; test: Binding of 14C-epirubicin at 0.077 ug-ml-1 concentration to plasma protein of rat; format: organism-based; design: conc 0.077 ug.ml-1, dosed compound id 2.46808e+06, dosed compound name, sampling time 6 h; details: SD, at 0.077 µg/mL
Rattus norvegicus [3] = species on record: Rattus norvegicus; test: Binding of 14C-epirubicin at 500 ng.ml-1 concentration to plasma protein of rat; format: cell-free; details: SD
Homo sapiens [4] = species on record: Homo sapiens; test: Binding of 14C-epirubicin at 100 ng.ml-1 concentration to plasma protein of man; format: cell-free; design: gender
Rattus norvegicus [5] = species on record: Rattus norvegicus; test: Binding of 14C-epirubicin at 100 ng.ml-1 concentration to plasma protein of rat; format: cell-free; details: SD
Rattus norvegicus [6] = species on record: Rattus norvegicus; test: Binding of 14C-epirubicin at 0.048 ug-ml-1 concentration to plasma protein of rat; format: organism-based; design: conc 0.048 ug.ml-1, dosed compound id 2.46808e+06, dosed compound name, sampling time 24 h; details: SD, at 0.048 µg/mL
Homo sapiens [7] = species on record: Homo sapiens; test: Binding of epirubicin to plasma protein of human; format: cell-free
Homo sapiens [8] = species on record: Homo sapiens; test: Binding of 14C-epirubicin at 1000 ng.ml-1 concentration to plasma protein of man; format: cell-free; design: gender
Mus musculus [9] = species on record: Mus musculus; test: Binding of 14C-epirubicin at 1000 ng.ml-1 concentration to plasma protein of mouse; format: cell-free; details: CD-1
Rattus norvegicus [10] = species on record: Rattus norvegicus; test: Binding of 14C-epirubicin at 1.081 ug-ml-1 concentration to plasma protein of rat; format: cell-free; design: conc 1.081 ug.ml-1; details: SD, at 1.081 µg/mL
Rattus norvegicus [11] = species on record: Rattus norvegicus; test: Binding of 14C-epirubicin at 0.164 ug-ml-1 concentration to plasma protein of rat; format: organism-based; design: conc 0.164 ug.ml-1, dosed compound id 2.46808e+06, dosed compound name, sampling time 30 min; details: SD, at 0.164 µg/mL
Rattus norvegicus [12] = species on record: Rattus norvegicus; test: Binding of 14C-epirubicin at 20 ng.ml-1 concentration to plasma protein of rat; format: cell-free; details: SD
Rattus norvegicus [13] = species on record: Rattus norvegicus; test: Binding of 14C-epirubicin at 1000 ng.ml-1 concentration to plasma protein of rat; format: cell-free; details: SD
Canis lupus familiaris [14] = species on record: Canis lupus familiaris; test: Binding of 14C-epirubicin at 20 ng.ml-1 concentration to plasma protein of dog; format: cell-free; details: Beagle
Rattus norvegicus [15] = species on record: Rattus norvegicus; test: Binding of 14C-epirubicin at 0.223 ug-ml-1 concentration to plasma protein of rat; format: cell-free; design: conc 0.223 ug.ml-1; details: SD, at 0.223 µg/mL
Rattus norvegicus [16] = species on record: Rattus norvegicus; test: Binding of 14C-epirubicin at 0.056 ug-ml-1 concentration to plasma protein of rat; format: cell-free; design: conc 0.056 ug.ml-1; details: SD, at 0.056 µg/mL
Canis lupus familiaris [17] = species on record: Canis lupus familiaris; test: Binding of 14C-epirubicin at 1000 ng.ml-1 concentration to plasma protein of dog; format: cell-free; details: Beagle
Homo sapiens [18] = species on record: Homo sapiens; test: Binding of epirubicin at 20-1000 ng.ml-1 concentration to plasma protein of human; format: cell-free
Mus musculus [19] = species on record: Mus musculus; test: Binding of 14C-epirubicin at 500 ng.ml-1 concentration to plasma protein of mouse; format: cell-free; details: CD-1
Mus musculus [20] = species on record: Mus musculus; test: Binding of 14C-epirubicin at 100 ng.ml-1 concentration to plasma protein of mouse; format: cell-free; details: CD-1
Canis lupus familiaris [21] = species on record: Canis lupus familiaris; test: Binding of 14C-epirubicin at 500 ng.ml-1 concentration to plasma protein of dog; format: cell-free; details: Beagle
Homo sapiens [22] = species on record: Homo sapiens; test: Binding of 14C-epirubicin at 500 ng.ml-1 concentration to plasma protein of man; format: cell-free; design: gender
Oryctolagus cuniculus [23] = species on record: Oryctolagus cuniculus; test: Binding of 14C-epirubicin at 1000 ng.ml-1 concentration to plasma protein of rabbit; format: cell-free; details: New Zealand White
Oryctolagus cuniculus [24] = species on record: Oryctolagus cuniculus; test: Binding of 14C-epirubicin at 20 ng.ml-1 concentration to plasma protein of rabbit; format: cell-free; details: New Zealand White
Oryctolagus cuniculus [25] = species on record: Oryctolagus cuniculus; test: Binding of 14C-epirubicin at 500 ng.ml-1 concentration to plasma protein of rabbit; format: cell-free; details: New Zealand White
Canis lupus familiaris [26] = species on record: Canis lupus familiaris; test: Binding of 14C-epirubicin at 100 ng.ml-1 concentration to plasma protein of dog; format: cell-free; details: Beagle
Oryctolagus cuniculus [27] = species on record: Oryctolagus cuniculus; test: Binding of 14C-epirubicin at 100 ng.ml-1 concentration to plasma protein of rabbit; format: cell-free; details: New Zealand White
[28] = Plasma clearance of carminomycin following intravenous carminomycin at 1.0 mg.Kg-1 dose in dog; format: ADME, organism-based, Canis lupus familiaris; design: dose 1 mg.Kg-1, dosed compound id 2.46809e+06, dosed compound name Carminomycin, route intravenous; details: Beagle, read-out: Clp
[29] = Terminal half-life of carminomycin following intravenous carminomycin at 1.0 mg.Kg-1 dose in dog; format: ADME, organism-based, Canis lupus familiaris; design: dose 1 mg.Kg-1, dosed compound id 2.46809e+06, dosed compound name Carminomycin, route intravenous; details: Beagle, plasma
[30] = Volume of distribution of carminomycin following intravenous carminomycin at 1.0 mg.Kg-1 dose in dog; format: ADME, organism-based, Canis lupus familiaris; design: dose 1 mg.Kg-1, dosed compound id 2.46809e+06, dosed compound name Carminomycin, route intravenous; details: Beagle, plasma
[31] = Terminal half-life of daunorubicin following intravenous daunorubicin at 1.2 mg.Kg-1 dose in dog; format: ADME, organism-based, Canis lupus familiaris; design: dose 1.2 mg.Kg-1, dosed compound id 2.46809e+06, dosed compound name Daunorubicin, route intravenous; details: Beagle, plasma
[32] = Volume of distribution of daunorubicin following intravenous daunorubicin at 1.2 mg.Kg-1 dose in dog; format: ADME, organism-based, Canis lupus familiaris; design: dose 1.2 mg.Kg-1, dosed compound id 2.46809e+06, dosed compound name Daunorubicin, route intravenous; details: Beagle, plasma
[33] = Plasma clearance of daunorubicin following intravenous daunorubicin at 1.2 mg.Kg-1 dose in dog; format: ADME, organism-based, Canis lupus familiaris; design: dose 1.2 mg.Kg-1, dosed compound id 2.46809e+06, dosed compound name Daunorubicin, route intravenous; details: Beagle, read-out: Clp
[34] = Mean terminal half-life for ADR-529 following intravenous epirubicin at 0.5 mg.Kg-1 dose administered approximately 25 minute prior to epirubicin once weekly for four weeks in dog; format: ADME, organism-based, Canis lupus familiaris; details: Beagle, plasma
[35] = AUC (2-8 h) of ADR-529 following intravenous ADR-529 at 10 mg.Kg-1 dose administered approximately 25 minute prior to epirubicin once weekly for four weeks in dog; format: ADME, organism-based, Canis lupus familiaris; design: dose 10 mgKg-1, dosed compound id 2.4681e+06, dosed compound name Dexrazoxane, dose level Intermediate, route intravenous, sampling time 8 h, study doses 5/10/20 mgKg-1; details: Beagle, plasma
[36] = AUC (2-8 h) of ADR-529 following intravenous ADR-529 at 20 mg.Kg-1 dose administered approximately 25 minute prior to epirubicin once weekly for four weeks in dog; format: ADME, organism-based, Canis lupus familiaris; design: dose 20 mgKg-1, dosed compound id 2.4681e+06, dosed compound name Dexrazoxane, dose level High, route intravenous, sampling time 8 h, study doses 5/10/20 mgKg-1; details: Beagle, plasma
[37] = Mean terminal half-life for ADR-529 following intravenous epirubicin at 1 mg.Kg-1 dose administered approximately 25 minute prior to epirubicin once weekly for four weeks in dog; format: ADME, organism-based, Canis lupus familiaris; details: Beagle, plasma

Compound `COc1cccc2c1C(=O)c1c(O)c3c(c(O)c1C2=O)C[C@@](O)(C(=O)CO)C[C@@H]3O[C@H]1C[C@H](N)[C@@H](O)[C@H](C)O1` has a PPB (Mus musculus [1]) of 76.5%, a PPB (Rattus norvegicus [2]) of 85.6% and a PPB (Rattus norvegicus [3]) of 81.3%. The PPB (Homo sapiens [4]) was 78.1%, the PPB (Rattus norvegicus [5]) was 82.8% and the PPB (Rattus norvegicus [6]) was 88.2%. For the same compound, the PPB (Homo sapiens [7]) was 75%, the PPB (Homo sapiens [8]) was 76.8% and the PPB (Mus musculus [9]) was 80.3%. It also gave a PPB (Rattus norvegicus [10]) of 82.2%, a PPB (Rattus norvegicus [11]) of 80.7% and a PPB (Rattus norvegicus [12]) of 79.1%. For the same compound, the PPB (Rattus norvegicus [13]) was 78.7%, the PPB (Canis lupus familiaris [14]) was 80.3% and the PPB (Rattus norvegicus [15]) was 81%. It also gave a PPB (Rattus norvegicus [16]) of 81.7%, a PPB (Canis lupus familiaris [17]) of 80.9% and a PPB (Homo sapiens [18]) of 77%. The PPB (Mus musculus [19]) was 80%, the PPB (Mus musculus [20]) was 79.9% and the PPB (Canis lupus familiaris [21]) was 80.7%. It also gave a PPB (Homo sapiens [22]) of 77.3%, a PPB (Oryctolagus cuniculus [23]) of 77.1% and a PPB (Oryctolagus cuniculus [24]) of 78.5%. It also gave a PPB (Oryctolagus cuniculus [25]) of 78.4%, a PPB (Canis lupus familiaris [26]) of 81.2% and a PPB (Oryctolagus cuniculus [27]) of 70.2%.
Compound `CC(=O)[C@]1(O)Cc2c(O)c3c(c(O)c2[C@@H](O[C@H]2C[C@H](N)[C@H](O)[C@H](C)O2)C1)C(=O)c1c(O)cccc1C3=O` [CARUBICIN] has a clearance [28] of 1360 mL/min, a half-life [29] of 20.3 min and a Vd [30] of 98.5 L/kg.
`COc1cccc2c1C(=O)c1c(O)c3c(c(O)c1C2=O)C[C@@](O)(C(C)=O)C[C@@H]3O[C@H]1C[C@H](N)[C@H](O)[C@H](C)O1` [DAUNORUBICIN] showed a half-life [31] of 5.3 min, a Vd [32] of 51 L/kg and a clearance [33] of 2030 mL/min.
For `C[C@@H](CN1CC(=O)NC(=O)C1)N1CC(=O)NC(=O)C1` [DEXRAZOXANE], the half-life [34] was 108 min, the AUC [35] was 2710 ng·h/mL and the AUC [36] was 5570 ng·h/mL. For the same compound, the half-life [37] was 72 min.
